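Results reflect a 48-hour exposure of cells in 96-well plates to compound at five concentrations. Here, GI50 denotes the concentration required for 50% inhibition of growth. TGI: total growth inhibition.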 Some results are limits rather than exact numbers.

Data on eight compounds can be found in PubChem BioAssay (NCI).

Among the test systems are CCRF-CEM leukemia; ACHN renal; UACC-257 melanoma; SF-539 CNS; BT-549 breast; TK-10 renal; OVCAR-3 ovarian; PC-3 prostate; HOP-92 NSCLC; RXF 393 renal.
Assay in all cases: growth of human tumour cells (NCI), 48 h

As for `CC(=O)OC1=CC2=CC[C@H]3[C@@H]4CCC(=O)[C@@]4(C)CC(=O)[C@]3(S)[C@@]2(C)CC1`, the TGI in the assay on CCRF-CEM leukemia is over 100 µM; in the assay with ACHN renal it was over 100 µM; with UACC-257 melanoma, 79.6 µM; with SF-539 CNS it was 43.1 µM; with BT-549 breast, over 100 µM; with TK-10 renal it was 85.1 µM. The TGI in the assay with OVCAR-3 ovarian is 69.3 µM; in the assay with PC-3 prostate, over 100 µM; in the assay with HOP-92 NSCLC it was 62.8 µM; in the assay with RXF 393 renal, 39.7 µM.
`CC(C)(C)c1ccc(OC(=O)Nc2ccc(O)c(C(=O)O)c2)cc1`: the TGI with CCRF-CEM leukemia, in the assay on ACHN renal, with UACC-257 melanoma, in the assay with SF-539 CNS, in the assay on BT-549 breast and with TK-10 renal was over 100 µM throughout. The TGI in the assay with OVCAR-3 ovarian, with PC-3 prostate, with HOP-92 NSCLC and in the assay with RXF 393 renal was over 100 µM in each case.
Turning to `C=C1C(=O)O[C@H]2[C@H]1CC/C(COC(=O)CCSCCC(=O)OC/C1=C/CC[C@@]3(C)O[C@H]3[C@H]3OC(=O)C(=C)[C@@H]3CC1)=C\CC[C@@]1(C)O[C@@H]21`, the GI50 in the assay with CCRF-CEM leukemia is 0.314 µM; with ACHN renal it was 0.658 µM; with UACC-257 melanoma it was 1.64 µM; in the assay with SF-539 CNS, 1.2 µM; with BT-549 breast, 1.29 µM; with TK-10 renal, 1.5 µM. Besides, the GI50 with OVCAR-3 ovarian is 0.451 µM; in the assay with PC-3 prostate it was 1.82 µM; with HOP-92 NSCLC, 1.26 µM; in the assay on RXF 393 renal it was 0.767 µM. Besides, the TGI was 1.25 µM in the assay on CCRF-CEM leukemia; 1.89 µM in the assay with ACHN renal; 3.6 µM in the assay with UACC-257 melanoma; 2.59 µM in the assay on SF-539 CNS; 2.66 µM with BT-549 breast; 2.98 µM with TK-10 renal. Also, the TGI stood at 1.69 µM with OVCAR-3 ovarian, 4.8 µM in the assay with PC-3 prostate, 2.7 µM in the assay on HOP-92 NSCLC and 2.15 µM with RXF 393 renal.
For the compound `O=[N+]([O-])c1ccc(C2CC(c3ccccc3Cl)=Nc3ccccc3S2=O)cc1` (stereo unspecified), the TGI with CCRF-CEM leukemia came out at 4.37 µM; with ACHN renal it was 4.26 µM; in the assay with UACC-257 melanoma, 48.3 µM; in the assay on SF-539 CNS, 15.9 µM; in the assay with BT-549 breast it was 31.1 µM; in the assay on TK-10 renal, 19.9 µM. Besides, the TGI worked out at 8.12 µM in the assay on OVCAR-3 ovarian, 17.3 µM with PC-3 prostate, 31.5 µM in the assay with HOP-92 NSCLC and 4.05 µM in the assay on RXF 393 renal.
Take `N[C@@H]1C(=O)N2C(C(=O)OC(c3ccccc3)c3ccccc3)=C(CCl)CS[C@H]12`: the TGI was over 61.6 µM with CCRF-CEM leukemia; over 100 µM in the assay with ACHN renal; over 100 µM with UACC-257 melanoma; 50.2 µM in the assay with SF-539 CNS; 62.8 µM with BT-549 breast; over 100 µM in the assay on TK-10 renal. Besides, the TGI in the assay on OVCAR-3 ovarian is 75.6 µM; with PC-3 prostate, over 100 µM; in the assay on HOP-92 NSCLC it was over 71.4 µM; in the assay on RXF 393 renal it was 63.7 µM. Besides, the GI50 with ACHN renal was 40.2 µM; in the assay on UACC-257 melanoma, over 100 µM; in the assay on SF-539 CNS, 23.5 µM; with BT-549 breast, 25.4 µM; in the assay with TK-10 renal it was 50.1 µM; with OVCAR-3 ovarian, 26 µM. For the same compound, the GI50 was 32.4 µM in the assay with PC-3 prostate, 38.3 µM in the assay on HOP-92 NSCLC and 26.4 µM in the assay with RXF 393 renal.
Regarding `N#Cc1c(Br)n(C2OC(CO)C(O)C2O)c2ncnc(N)c12` (stereo unspecified), the GI50 in the assay on CCRF-CEM leukemia was 0.241 µM; in the assay with ACHN renal it was 1.21 µM; in the assay with UACC-257 melanoma it was 4.72 µM; in the assay on SF-539 CNS it was 3.91 µM; in the assay on BT-549 breast, 1.58 µM; in the assay with TK-10 renal it was 4.02 µM. Also, the GI50 in the assay on OVCAR-3 ovarian is 1.6 µM; in the assay with PC-3 prostate it was 0.811 µM; with HOP-92 NSCLC, 0.738 µM; in the assay on RXF 393 renal, 0.847 µM. For the same compound, the TGI in the assay with CCRF-CEM leukemia was 3.87 µM; in the assay with ACHN renal, over 90.9 µM; in the assay with UACC-257 melanoma, 38.5 µM; in the assay on SF-539 CNS it was 19.3 µM; with BT-549 breast, 15 µM; in the assay on TK-10 renal, 42 µM. Moreover, the TGI in the assay with OVCAR-3 ovarian turned out to be 34.1 µM; in the assay on PC-3 prostate it was 18.6 µM; with HOP-92 NSCLC, 4.02 µM; with RXF 393 renal, 6.8 µM.
As to `S=c1[nH]nc(Cc2ccccc2)c(=S)[nH]1`, the TGI was over 100 µM with CCRF-CEM leukemia; over 100 µM in the assay with UACC-257 melanoma; over 100 µM in the assay on SF-539 CNS; 96.9 µM with BT-549 breast; over 94.1 µM with TK-10 renal; over 100 µM in the assay on OVCAR-3 ovarian. The TGI with PC-3 prostate was 88.2 µM; in the assay on HOP-92 NSCLC, over 73.1 µM; in the assay with RXF 393 renal, over 100 µM.
As to `COc1cccc(-c2ccc3c(c2)C2CCN(Cc4ccccc4)C3C2)c1` (stereo unspecified), the GI50 is 9.67 µM in the assay with CCRF-CEM leukemia; 11.9 µM in the assay with ACHN renal; 11.2 µM with UACC-257 melanoma; 10.3 µM in the assay with SF-539 CNS; 6.12 µM in the assay with BT-549 breast; 4.49 µM in the assay with OVCAR-3 ovarian. In addition, the GI50 with PC-3 prostate is 6.99 µM; with HOP-92 NSCLC it was 3.72 µM; in the assay with RXF 393 renal, 10.1 µM. Also, the TGI in the assay on CCRF-CEM leukemia is 56.1 µM; in the assay with ACHN renal it was 38.1 µM; in the assay with UACC-257 melanoma, 29.1 µM; in the assay on SF-539 CNS it was 23 µM; with BT-549 breast, 21.1 µM; in the assay on OVCAR-3 ovarian it was 17 µM. Moreover, the TGI in the assay with PC-3 prostate stood at 65.4 µM; with HOP-92 NSCLC it was 20.2 µM; in the assay with RXF 393 renal, 24.6 µM.
